Assay results from US10512656B2, “Compositions and methods for the treatment of lysosomal storage disorders and disorders characterized by lysosomal dysfunction” (Baylor College of Medicine, priority 2016, dated 2019).

Tests used:
[1] = test system: Batten mice (Cln3 KO mice); test: Macrophage infiltration (% area of CD68); type: in vivo, mouse
Description: (§1) Batten mice (Cln3 KO mice) were administered trehalose, a low dose of miglustat, a high dose of miglustat, or a combination of trehalose and miglustat. Two controls were used in these experiments: (1) untreated Batten mice, and (2) untreated wild type mice. Neuronal cell death (measured by the density (no. of cells/area) of CAS-3 positive cells), neuroinflammation (measured by the number of GFAP-positive astrocyte cells in the neuronal system), and macrophage infiltration into the nervous system (measured by the % area of CD68) were measured.

[2] = test system: Batten mice (Cln3 KO mice); test: Astrogliosis (GFAP-positive cells); type: in vivo, mouse
Description: as §1

[3] = test system: Batten mice (Cln3 KO mice); test: Neuronal cell death (density of CAS-3 positive cells); type: in vivo, mouse
Description: as §1

TFEB [4] = test: TFEB nuclear translocation in cells expressing constitutively active Akt (Akt-DD); type: cell-based, human; conditions: 24 h
Description: FIG. 16. Trehalose controls Akt regulation of TFEB in a GSK3β-independent manner. (a) HeLa cells were treated with trehalose for 24 h or left untreated. Immunoblot analyses were used to evaluate levels of GSK33 and its phosphorylation status. GAPDH was used as a loading control. (b) HeLa cells were cotransfected with TFEB-3×Flag and constitutively active GSK3β (CA-GSK3β), treated with trehalose or MK2206 for 24 h, and examined by immunofluorescence labeling for Flag (red) and GSK3β (green). Scale bar is 20 […]. (c) HeLa cells were cotransfected with TFEB-3×Flag and constitutively active Akt (Akt-DD), treated with the GSK3β inhibitor CHIR99021 for 24 h, and examined by immunofluorescence labeling for Flag (red) and Akt (green). Scale bar is 20 μm.

[5] = biological target: TFEB-3×FLAG (transcription factor EB, wild type, Flag-tagged) (UniProt P19484)
Sequence of TFEB-3×FLAG (transcription factor EB, wild type, Flag-tagged) (P19484 whole entry): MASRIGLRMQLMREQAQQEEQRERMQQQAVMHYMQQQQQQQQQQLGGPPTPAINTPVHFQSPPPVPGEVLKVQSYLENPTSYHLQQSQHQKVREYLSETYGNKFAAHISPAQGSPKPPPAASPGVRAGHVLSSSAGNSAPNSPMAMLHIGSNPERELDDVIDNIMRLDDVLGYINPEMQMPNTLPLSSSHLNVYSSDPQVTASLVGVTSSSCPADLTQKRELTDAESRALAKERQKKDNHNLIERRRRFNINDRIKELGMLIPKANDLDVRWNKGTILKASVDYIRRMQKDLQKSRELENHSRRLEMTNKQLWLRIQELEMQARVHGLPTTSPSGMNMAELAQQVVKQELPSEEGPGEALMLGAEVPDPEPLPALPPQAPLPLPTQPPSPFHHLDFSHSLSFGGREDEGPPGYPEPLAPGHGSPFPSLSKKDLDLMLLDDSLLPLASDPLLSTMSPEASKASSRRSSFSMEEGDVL

TFEB [6] = test: TFEB nuclear translocation in HeLa/TFEB cells; type: cell-based, human; conditions: confocal microscopy and subcellular fractionation
Description: Control (Coriell Institute, USA) and JNCL fibroblasts (Gaslini Institute, Italy) were grown in DMEM (1:1, HyClone) supplemented with 10% heat-inactivated fetal bovine serum (FBS, Atlanta Biologicals), 2 mM L-glutamine, 100 U/ml penicillin and […] streptomycin (Invitrogen). HeLa cells were incubated for 2 h with LY294002 ([…], Cell Signaling), Torin 1 (300 nM, Cayman Chemical) or for 24 h with trehalose (100 mM, Sigma), rapamycin (300 nM, Sigma), MK2206 (1 μM, Selleckchem), U0126 ([…], Tocris) and dialyzed serum (GE Healthcare Life Sciences) for 30 min. For immunofluorescence assay, cells were grown on coverslips in 24-well plates. After the treatment, cells were washed with PBS and fixed with methanol for 10 min. Cells were then blocked with blocking reagent (0.1% saponin, 10% bovine serum in PBS) for 1 h and incubated with appropriate primary antibody(s) (1:100) for 3 h at room temperature. After three washes with PBS, the cells were incubated with appropriate secondary antibodies (1:500) for 1 h at room temperature. Coverslips were then mounted with vectashield containing 4,6-diamidino-2-phenylindole (H-1200) for imaging via confocal microscopy. Cell pellets were resuspended in lysis buffer (10 mM Hepes pH 7.9, 10 mM KCl, 0.1 mM EDTA and 0.4% Nonidet P40) with inhibitors by pipetting and kept in ice for 30 min. After 1 min of spin at full speed, the supernatant was collected as cytosolic fraction. The pellet was washed twice with lysis buffer and resuspended with nuclear buffer (20 mM Hepes pH 7.9, 0.4M NaCl and 1 mM EDTA) containing phosphatases and proteases inhibitors. After 15 min of vigorous shaking on an Eppendorf shaker, the pellet was spun down at full speed for 10 min. The supernatant was used as the nuclear fraction.

[7] = all miglustat-treated Batten mice
[8] = all miglustat-treated mice, P<0.05

CCCCN1C[C@H](O)[C@@H](O)[C@H](O)[C@H]1CO [miglustat]
macrophage infiltration vs wild-type mice [1, 7]: indistinguishable from the wild-type mice
macrophage infiltration vs untreated Batten mice [1, 8]: less macrophage infiltration
astrogliosis vs wild-type mice [2, 7]: indistinguishable from the wild-type mice
GFAP-positive cells vs untreated Batten mice [2, 8]: less GFAP-positive cells
neuronal cell death vs wild-type mice [3, 7]: indistinguishable from the wild-type mice
neuronal cell death vs untreated Batten mice ([3]; low dose, high dose, or combined with trehalose, P<0.05): less neuronal cell death

Cc1c[nH]c(-c2cnc(NCCNc3ccc(C#N)cn3)nc2-c2ccc(Cl)cc2Cl)n1 [CHIR-99021]
TFEB nuclear translocation (TFEB [4]): promoted nuclear translocation of TFEB

purified, active AKT1 enzyme (SignalChem)
in vitro Akt kinase assay ([32P]ATP, autoradiography) [5]: Akt phosphorylates purified TFEB

CCC(=O)N1CCN(c2ccc(-n3c(=O)ccc4cnc5ccc(-c6cnc7ccccc7c6)cc5c43)cc2C(F)(F)F)CC1 [Torin 1]
TFEB nuclear translocation on kinase inhibitors (TFEB [6]): TFEB nuclear translocation
